Assay results from PubChem BioAssay (NCI).
Several values for one entry are separate records, joined by “and”; a condition that tells them apart may be missing. Identical values can stand only once.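 Cultured in 96-well plates, cells were exposed to test compound for 48 hours across five concentrations. GI50 = concentration required for 50% inhibition of growth. TGI: total growth inhibition.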

Experiments:
Assay in all cases: NCI-60 cell line screen, 48 h
CAKI-1 renal = system: CAKI-1 renal
RPMI-8226 leukemia = system: RPMI-8226 leukemia
SK-MEL-5 melanoma = system: SK-MEL-5 melanoma
SN12C renal = system: SN12C renal
IGROV1 ovarian = system: IGROV1 ovarian
MDA-MB-435 = system: MDA-MB-435
ACHN renal = system: ACHN renal
A498 renal = system: A498 renal
PC-3 prostate = system: PC-3 prostate
OVCAR-3 ovarian = system: OVCAR-3 ovarian
MDA-N = system: MDA-N
U251 CNS = system: U251 CNS
786-0 renal = system: 786-0 renal
UACC-257 melanoma = system: UACC-257 melanoma
HS 578T breast = system: HS 578T breast
OVCAR-4 ovarian = system: OVCAR-4 ovarian
TK-10 renal = system: TK-10 renal
MALME-3M melanoma = system: MALME-3M melanoma
HCC-2998 colon = system: HCC-2998 colon
HOP-62 NSCLC = system: HOP-62 NSCLC
RXF 393 renal = system: RXF 393 renal
KM12 colon = system: KM12 colon
OVCAR-5 ovarian = system: OVCAR-5 ovarian
SK-OV-3 ovarian = system: SK-OV-3 ovarian
NCI-H460 lung = system: NCI-H460 lung
MDA-MB-231 breast = system: MDA-MB-231 breast
COLO 205 colon = system: COLO 205 colon
SK-MEL-2 melanoma = system: SK-MEL-2 melanoma
SR leukemia = system: SR leukemia
T-47D breast = system: T-47D breast
OVCAR-8 ovarian = system: OVCAR-8 ovarian
SNB-19 CNS = system: SNB-19 CNS
K-562 leukemia = system: K-562 leukemia
MOLT-4 leukemia = system: MOLT-4 leukemia
SW-620 colon = system: SW-620 colon
M14 melanoma = system: M14 melanoma
BT-549 breast = system: BT-549 breast
SF-268 CNS = system: SF-268 CNS
SK-MEL-28 melanoma = system: SK-MEL-28 melanoma
A549 NSCLC = system: A549 NSCLC
CCRF-CEM leukemia = system: CCRF-CEM leukemia
HCT-15 colon = system: HCT-15 colon
MCF7 breast = system: MCF7 breast
HT29 colon = system: HT29 colon
NCI/ADR-RES ovarian = system: NCI/ADR-RES ovarian
HCT-116 colon = system: HCT-116 colon
SF-539 CNS = system: SF-539 CNS
HOP-92 NSCLC = system: HOP-92 NSCLC
UO-31 renal = system: UO-31 renal
SF-295 CNS = system: SF-295 CNS
DU-145 prostate = system: DU-145 prostate
EKVX NSCLC = system: EKVX NSCLC
LOX IMVI melanoma = system: LOX IMVI melanoma
HL-60(TB) leukemia = system: HL-60(TB) leukemia
NCI-H226 lung = system: NCI-H226 lung
SNB-75 CNS = system: SNB-75 CNS
NCI-H522 lung = system: NCI-H522 lung
NCI-H23 lung = system: NCI-H23 lung
UACC-62 melanoma = system: UACC-62 melanoma
DLD-1 colon = system: DLD-1 colon
SNB-78 CNS = system: SNB-78 CNS
HOP-18 NSCLC = system: HOP-18 NSCLC

SMILES: CCCCCCCCCCCCCCCCP(=O)(O)OP(=O)(O)OCC1OC(n2ccc(N)nc2=O)C(O)C1O (stereo not drawn)
- GI50 (CAKI-1 renal): 75.8 µM and 11.9 µM
- TGI (CAKI-1 renal): > 100 µM
- GI50 (RPMI-8226 leukemia): > 100 µM and 35.1 µM
- TGI (RPMI-8226 leukemia): > 100 µM
- GI50 (SK-MEL-5 melanoma): > 100 µM and 11.2 µM
- TGI (SK-MEL-5 melanoma): > 100 µM and 34.3 µM
- GI50 (SN12C renal): 54.5 µM and 9.05 µM
- TGI (SN12C renal): > 100 µM
- GI50 (IGROV1 ovarian): 62.4 µM and 26 µM
- TGI (IGROV1 ovarian): > 100 µM
- GI50 (MDA-MB-435): > 100 µM and 14.6 µM
- TGI (MDA-MB-435): > 100 µM
- TGI (ACHN renal): > 100 µM and 37.1 µM
- TGI (A498 renal): > 47.9 µM
- GI50 (PC-3 prostate): 37.8 µM and 10.8 µM
- TGI (PC-3 prostate): > 100 µM
- TGI (OVCAR-3 ovarian): > 100 µM
- GI50 (MDA-N): > 100 µM and 40.4 µM
- TGI (MDA-N): > 100 µM
- GI50 (U251 CNS): 43.1 µM and 13.5 µM
- TGI (U251 CNS): > 100 µM and 38 µM
- TGI (786-0 renal): > 100 µM and 27.6 µM
- GI50 (UACC-257 melanoma): > 100 µM and 41.8 µM
- TGI (UACC-257 melanoma): > 100 µM
- GI50 (HS 578T breast): 83.2 µM and 29.2 µM
- TGI (HS 578T breast): > 100 µM
- GI50 (OVCAR-4 ovarian): 91.4 µM and 43.8 µM
- TGI (OVCAR-4 ovarian): > 100 µM
- TGI (TK-10 renal): > 100 µM
- GI50 (MALME-3M melanoma): > 100 µM and 14 µM
- TGI (MALME-3M melanoma): > 100 µM and 50.3 µM
- GI50 (HCC-2998 colon): 99.7 µM and 17 µM
- TGI (HCC-2998 colon): > 100 µM and 91.2 µM
- GI50 (HOP-62 NSCLC): 31.5 µM and 4.41 µM
- TGI (HOP-62 NSCLC): 97.3 µM and 44.6 µM
- GI50 (RXF 393 renal): 62.6 µM and 19.8 µM
- TGI (RXF 393 renal): > 100 µM and 41.1 µM
- TGI (KM12 colon): > 100 µM
- TGI (OVCAR-5 ovarian): 65.3 µM and > 64.4 µM
- GI50 (SK-OV-3 ovarian): > 100 µM and 11 µM
- TGI (SK-OV-3 ovarian): > 100 µM and 72.6 µM
- TGI (NCI-H460 lung): > 100 µM
- GI50 (MDA-MB-231 breast): > 100 µM and 37.9 µM
- TGI (MDA-MB-231 breast): > 100 µM
- GI50 (COLO 205 colon): 54.7 µM and 19 µM
- TGI (COLO 205 colon): > 100 µM
- TGI (SK-MEL-2 melanoma): > 100 µM
- TGI (SR leukemia): 23.7 µM
- TGI (T-47D breast): > 100 µM
- TGI (OVCAR-8 ovarian): > 100 µM and 51.3 µM
- GI50 (SNB-19 CNS): 70.5 µM and 16.1 µM
- TGI (SNB-19 CNS): > 100 µM
- TGI (K-562 leukemia): > 100 µM
- TGI (MOLT-4 leukemia): > 100 µM and 22.7 µM
- GI50 (SW-620 colon): > 100 µM and 14.4 µM
- TGI (SW-620 colon): > 100 µM and 59 µM
- TGI (M14 melanoma): > 100 µM
- GI50 (BT-549 breast): > 100 µM and 24.3 µM
- TGI (BT-549 breast): > 100 µM
- GI50 (SF-268 CNS): 83.3 µM and 41.4 µM
- TGI (SF-268 CNS): > 100 µM
- TGI (SK-MEL-28 melanoma): > 100 µM
- TGI (A549 NSCLC): > 100 µM
- TGI (CCRF-CEM leukemia): > 100 µM and 21.4 µM
- GI50 (HCT-15 colon): 97.5 µM and 19.3 µM
- TGI (HCT-15 colon): > 100 µM
- GI50 (MCF7 breast): > 100 µM and 11.4 µM
- TGI (MCF7 breast): > 100 µM
- GI50 (HT29 colon): > 100 µM and 19.9 µM
- TGI (HT29 colon): > 100 µM
- TGI (NCI/ADR-RES ovarian): > 100 µM
- TGI (HCT-116 colon): > 100 µM and 37.4 µM
- TGI (SF-539 CNS): 36.3 µM and 88.6 µM
- GI50 (HOP-92 NSCLC): 65.3 µM and 17.6 µM
- TGI (HOP-92 NSCLC): > 100 µM and 67.4 µM
- TGI (UO-31 renal): > 100 µM and 28 µM
- GI50 (SF-295 CNS): 43 µM and 20.5 µM
- TGI (SF-295 CNS): > 100 µM and 56.5 µM
- TGI (DU-145 prostate): > 100 µM
- TGI (EKVX NSCLC): > 100 µM
- TGI (LOX IMVI melanoma): > 100 µM
- TGI (HL-60(TB) leukemia): > 100 µM
- GI50 (NCI-H226 lung): 64.5 µM and 21.6 µM
- TGI (NCI-H226 lung): > 100 µM and 78.9 µM
- TGI (SNB-75 CNS): 60.6 µM and 45.8 µM
- GI50 (NCI-H522 lung): > 100 µM and 24.6 µM
- TGI (NCI-H522 lung): > 100 µM
- GI50 (NCI-H23 lung): > 100 µM and 13.9 µM
- TGI (NCI-H23 lung): > 100 µM
- GI50 (UACC-62 melanoma): 44.5 µM and 9.63 µM
- TGI (UACC-62 melanoma): > 100 µM

SMILES: COc1ccc(/C=C\c2cc(OC)c(OC)c(OC)c2)cc1OP(=O)(O)O
- TGI (CAKI-1 renal): > 67.5 µM and 50 µM and > 100 µM
- TGI (RPMI-8226 leukemia): 25.1 µM and 50 µM and > 100 µM
- TGI (SN12C renal): > 100 µM and 50 µM
- TGI (IGROV1 ovarian): > 100 µM and 50 µM
- TGI (ACHN renal): > 100 µM and 50 µM and > 65 µM
- TGI (PC-3 prostate): > 100 µM
- GI50 (MDA-N): < 0.0001 µM
- TGI (786-0 renal): > 100 µM
- TGI (DLD-1 colon): > 100 µM and 50 µM
- TGI (UACC-257 melanoma): 88.9 µM and 50 µM and > 100 µM
- GI50 (HS 578T breast): 13.2 µM
- TGI (TK-10 renal): > 100 µM
- TGI (MALME-3M melanoma): > 100 µM and 24.5 µM and > 89 µM
- GI50 (HCC-2998 colon): 0.929 µM
- GI50 (HOP-62 NSCLC): 11.9 µM
- TGI (HOP-62 NSCLC): > 100 µM and 50 µM and > 76.1 µM
- TGI (OVCAR-5 ovarian): > 100 µM
- TGI (MDA-MB-231 breast): > 12.1 µM
- TGI (SK-MEL-2 melanoma): 0.0169 µM and 0.0953 µM
- GI50 (T-47D breast): 20.7 µM
- TGI (SNB-19 CNS): > 100 µM
- TGI (K-562 leukemia): 50 µM and > 100 µM
- TGI (MOLT-4 leukemia): > 100 µM and 50 µM
- TGI (SNB-78 CNS): > 100 µM and 50 µM
- TGI (SW-620 colon): > 100 µM and 50 µM
- TGI (BT-549 breast): > 100 µM
- TGI (SK-MEL-28 melanoma): > 100 µM and 50 µM
- TGI (A549 NSCLC): > 100 µM and 50 µM
- TGI (CCRF-CEM leukemia): > 100 µM
- GI50 (HT29 colon): 0.486 µM and 3.89 µM
- GI50 (DU-145 prostate): 0.609 µM
- TGI (DU-145 prostate): 0.356 µM and 0.371 µM
- TGI (EKVX NSCLC): > 100 µM and 50 µM
- GI50 (HOP-18 NSCLC): > 100 µM
- TGI (HOP-18 NSCLC): > 100 µM
- TGI (SNB-75 CNS): 50 µM and > 100 µM
- TGI (UACC-62 melanoma): > 100 µM and 50 µM and > 64.3 µM
